Measured values: patent publication US20110105417A1, “Drug Conjugates” (The Curators of the University of Missouri, priority 2008, published 2011)

Key:
MDCK-WT cells = experiment: Non-radioactive uptake study of B-10HD-ACV on MDCK-WT cells; assay type: in vitro ADME, dog; details: 200 μM; for Average uptake: DPBS pH 5.4, 90 minutes; for Relative fold uptake: relative to acyclovir
Method: Non-radioactive uptake studies were performed for the above prodrugs on MDCK-WT cells after growing them for 7 days. The medium was aspirated and the cells were washed 3 times after an interval of 5 minutes each with DPBS pH 5.4. […] Uptake was carried out for 90 minutes. Uptake was terminated using ice cold DPBS pH 5.4. The cells were then washed 2 times using distilled deionized water and lysed overnight at −80° C. with 500 uL of distilled deionized water in each well. The samples were analyzed using LC-MS/MS.

Caco-2 cells monolayer = experiment: Non-radioactive cellular uptake study, Caco-2; details: 90 minutes (FIG. 4)
[1] = tested on: MDCK-MDR1 cell monolayers
Method: The medium was changed everyday after reaching confluence.
The experiments were carried out for 90 minutes.

MDCK-MDR1 cell monolayer = experiment: Non-radioactive cellular uptake study, MDCK-MDR1; details: pH 5.5, 90 minutes (FIG. 2)

Average uptake (MDCK-WT cells) [pmoles/mg protein/min] | Relative fold uptake (MDCK-WT cells) | increase of uptake compared to ACV (MDCK-MDR1 cell monolayer) | SMILES | increase of uptake compared to ACV (Caco-2 cells monolayer) [times] | also measured
199.74 | 43.73 |  | Nc1nc2c(ncn2COCCOC(=O)CCCCCCCCCO)c(=O)[nH]1 [10HD-ACV, 2-((2-amino-6-oxo-1,6-dihydropurin-9-yl)methoxy)ethyl 10-hydroxy decanoate] |  | 
4.56 | 1 |  | Nc1nc2c(ncn2COCCO)c(=O)[nH]1 [ACV, 9-(2-hydroxyethoxymethyl)guanine, reference compound] |  | 
 |  |  | CCCCCCC(CCCCCCCCCCC(=O)OCCOCn1cnc2c(=O)[nH]c(N)nc21)OC(=O)CCCC[C@@H]1SC[C@@H]2NC(=O)N[C@@H]21 (stereo partly drawn) [B-12HS-ACV, Biotin-12-Hydroxystearicacid-ACV] | 8.3 | 
 |  |  | Nc1nc2c(ncn2COCCOC(=O)CCCC[C@@H]2SC[C@@H]3NC(=O)N[C@@H]32)c(=O)[nH]1 [B-ACV, Biotin-ACV] |  | uptake in the presence of biotin versus in its absence [1]: significantly lesser
 |  | 9.5 times | CCCCCC[C@H](C/C=C\CCCCCCCC(=O)OCCOCn1cnc2c(=O)[nH]c(N)nc21)OC(=O)CCCC[C@@H]1SC[C@@H]2NC(=O)N[C@@H]21 [B-R-ACV, Biotin-Ricinoleic acid-Acyclovir] |  | 
 |  | four | CCCCCC[C@@H](O)C/C=C\CCCCCCCC(=O)OCCOCn1cnc2c(=O)[nH]c(N)nc21 [R-ACV, Ricinoleicacid-ACV] | 1.4 | 
